The numbers were not newly measured in patent US20180250233A1, “TABLETS HAVING MEDIA INDEPENDENT ACTIVE SUBSTANCE DELIVERY” (MERCK PATENT GMBH, priority 2015, published 2018), which cites them from elsewhere.

As to `CC(C)NCC(O)COc1cccc2ccccc12` (centres unmarked) [propranolol], the elimination half-life (in vivo) was 2 to 6 h. Besides, the bioavailability (oral administration, pronounced first-pass metabolism) is recorded as 25-30%.
